Source: ChEMBL document CHEMBL4879554, “Data for DCP probe GNE-2256” (2021)

Columns and labels:
[1] = target: Protein kinase C theta type (Homo sapiens) (UniProt Q04759); assay: PKC_theta Kinase panel; settings: Compound concentration 1.0 uM
[2] = target: Eukaryotic elongation factor 2 kinase (Homo sapiens) (UniProt O00418); assay: eEF_2K Kinase panel; settings: Compound concentration 1.0 uM
[3] = target: Tyrosine-protein kinase Lck (Homo sapiens) (UniProt P06239); assay: Lck Kinase panel; settings: Compound concentration 1.0 uM
[4] = target: Calcium/calmodulin-dependent protein kinase type 1D (Homo sapiens) (UniProt Q8IU85); assay: CaMKI_delta Kinase panel; settings: Compound concentration 1.0 uM
Sequence of Calcium/calmodulin-dependent protein kinase type 1D (Homo sapiens) (Q8IU85 whole entry, looked up): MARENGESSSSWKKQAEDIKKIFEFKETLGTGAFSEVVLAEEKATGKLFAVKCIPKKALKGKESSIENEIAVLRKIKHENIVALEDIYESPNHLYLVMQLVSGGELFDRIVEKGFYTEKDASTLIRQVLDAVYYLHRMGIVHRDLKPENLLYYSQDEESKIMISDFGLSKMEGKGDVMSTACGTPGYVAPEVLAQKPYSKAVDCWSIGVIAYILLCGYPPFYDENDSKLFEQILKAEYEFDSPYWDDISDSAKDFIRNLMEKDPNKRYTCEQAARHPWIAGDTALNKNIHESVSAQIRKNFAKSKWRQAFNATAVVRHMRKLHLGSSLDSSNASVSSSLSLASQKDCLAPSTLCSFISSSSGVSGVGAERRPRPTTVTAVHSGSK

[5] = target: NUAK family SNF1-like kinase 1 (Homo sapiens) (UniProt O60285); assay: ARK5 Kinase panel; settings: Compound concentration 1.0 uM
[6] = target: Interleukin-1 receptor-associated kinase 4 (Homo sapiens) (UniProt Q9NWZ3); assay: IRAK4 Kinase panel; settings: Compound concentration 1.0 uM
[7] = target: Casein kinase I isoform delta (Homo sapiens) (UniProt P48730); assay: CK1_delta Kinase panel; settings: Compound concentration 1.0 uM
[8] = target: Mitogen-activated protein kinase kinase kinase kinase 1 (Homo sapiens) (UniProt Q92918); assay: HPK1 Kinase panel; settings: Compound concentration 1.0 uM
[9] = target: Serine/threonine-protein kinase PLK2 (Homo sapiens) (UniProt Q9NYY3); assay: PLK2 Kinase panel; settings: Compound concentration 1.0 uM
[10] = target: Serine/threonine-protein kinase Sgk1 (Homo sapiens) (UniProt O00141); assay: SGK1 Kinase panel; settings: Compound concentration 1.0 uM
[11] = target: Serine/threonine-protein kinase 26 (Homo sapiens) (UniProt Q9P289); assay: MST4 Kinase panel; settings: Compound concentration 1.0 uM
[12] = target: 5-hydroxytryptamine receptor 2C (Homo sapiens) (UniProt P28335); settings: Compound concentration 10.0 uM
[13] = target: Tyrosine-protein kinase JAK1 (Homo sapiens, UniProt P23458); assay: JAK1 Kinase panel
Sequence of Tyrosine-protein kinase JAK1 (P23458 whole entry): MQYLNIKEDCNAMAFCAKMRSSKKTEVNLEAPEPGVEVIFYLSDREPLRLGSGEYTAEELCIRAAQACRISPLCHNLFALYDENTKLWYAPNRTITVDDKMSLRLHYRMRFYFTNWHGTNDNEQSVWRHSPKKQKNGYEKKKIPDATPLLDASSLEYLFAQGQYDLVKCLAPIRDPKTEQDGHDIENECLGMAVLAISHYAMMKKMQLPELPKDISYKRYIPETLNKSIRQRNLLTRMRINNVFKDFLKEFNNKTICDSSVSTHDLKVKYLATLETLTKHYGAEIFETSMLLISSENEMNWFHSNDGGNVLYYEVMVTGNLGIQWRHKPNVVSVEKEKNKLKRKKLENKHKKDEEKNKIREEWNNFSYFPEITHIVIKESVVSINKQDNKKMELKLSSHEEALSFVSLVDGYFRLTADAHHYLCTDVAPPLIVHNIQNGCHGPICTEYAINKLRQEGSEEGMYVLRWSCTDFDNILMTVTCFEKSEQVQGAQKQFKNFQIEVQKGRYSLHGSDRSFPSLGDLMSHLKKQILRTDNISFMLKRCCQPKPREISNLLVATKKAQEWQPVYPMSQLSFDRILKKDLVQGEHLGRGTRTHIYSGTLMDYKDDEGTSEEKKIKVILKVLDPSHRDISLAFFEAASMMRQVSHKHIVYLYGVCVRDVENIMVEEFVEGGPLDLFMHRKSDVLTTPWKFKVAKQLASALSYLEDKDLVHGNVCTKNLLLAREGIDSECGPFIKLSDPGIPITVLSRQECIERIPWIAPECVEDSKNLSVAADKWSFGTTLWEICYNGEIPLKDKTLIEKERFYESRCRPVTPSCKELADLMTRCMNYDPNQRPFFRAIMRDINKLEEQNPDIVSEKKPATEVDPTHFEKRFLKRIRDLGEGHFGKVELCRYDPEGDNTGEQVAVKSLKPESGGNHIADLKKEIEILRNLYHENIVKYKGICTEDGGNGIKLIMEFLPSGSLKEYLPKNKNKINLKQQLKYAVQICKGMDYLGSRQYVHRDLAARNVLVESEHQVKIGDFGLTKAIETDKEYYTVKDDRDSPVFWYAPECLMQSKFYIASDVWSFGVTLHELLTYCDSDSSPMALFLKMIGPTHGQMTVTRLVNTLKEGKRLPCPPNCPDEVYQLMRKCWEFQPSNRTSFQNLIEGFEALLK

[14] = target: cGMP-dependent protein kinase 1 (Homo sapiens) (UniProt Q13976); assay: PKG1_alpha Kinase panel; settings: Compound concentration 1.0 uM
[15] = target: Serine/threonine-protein kinase 17A (Homo sapiens) (UniProt Q9UEE5); assay: DRAK1 Kinase panel; settings: Compound concentration 1.0 uM
[16] = target: Serine/threonine-protein kinase WNK2 (Homo sapiens) (UniProt Q9Y3S1); assay: WNK2 Kinase panel; settings: Compound concentration 1.0 uM
Sequence of Serine/threonine-protein kinase WNK2 (Homo sapiens) (Q9Y3S1 whole entry): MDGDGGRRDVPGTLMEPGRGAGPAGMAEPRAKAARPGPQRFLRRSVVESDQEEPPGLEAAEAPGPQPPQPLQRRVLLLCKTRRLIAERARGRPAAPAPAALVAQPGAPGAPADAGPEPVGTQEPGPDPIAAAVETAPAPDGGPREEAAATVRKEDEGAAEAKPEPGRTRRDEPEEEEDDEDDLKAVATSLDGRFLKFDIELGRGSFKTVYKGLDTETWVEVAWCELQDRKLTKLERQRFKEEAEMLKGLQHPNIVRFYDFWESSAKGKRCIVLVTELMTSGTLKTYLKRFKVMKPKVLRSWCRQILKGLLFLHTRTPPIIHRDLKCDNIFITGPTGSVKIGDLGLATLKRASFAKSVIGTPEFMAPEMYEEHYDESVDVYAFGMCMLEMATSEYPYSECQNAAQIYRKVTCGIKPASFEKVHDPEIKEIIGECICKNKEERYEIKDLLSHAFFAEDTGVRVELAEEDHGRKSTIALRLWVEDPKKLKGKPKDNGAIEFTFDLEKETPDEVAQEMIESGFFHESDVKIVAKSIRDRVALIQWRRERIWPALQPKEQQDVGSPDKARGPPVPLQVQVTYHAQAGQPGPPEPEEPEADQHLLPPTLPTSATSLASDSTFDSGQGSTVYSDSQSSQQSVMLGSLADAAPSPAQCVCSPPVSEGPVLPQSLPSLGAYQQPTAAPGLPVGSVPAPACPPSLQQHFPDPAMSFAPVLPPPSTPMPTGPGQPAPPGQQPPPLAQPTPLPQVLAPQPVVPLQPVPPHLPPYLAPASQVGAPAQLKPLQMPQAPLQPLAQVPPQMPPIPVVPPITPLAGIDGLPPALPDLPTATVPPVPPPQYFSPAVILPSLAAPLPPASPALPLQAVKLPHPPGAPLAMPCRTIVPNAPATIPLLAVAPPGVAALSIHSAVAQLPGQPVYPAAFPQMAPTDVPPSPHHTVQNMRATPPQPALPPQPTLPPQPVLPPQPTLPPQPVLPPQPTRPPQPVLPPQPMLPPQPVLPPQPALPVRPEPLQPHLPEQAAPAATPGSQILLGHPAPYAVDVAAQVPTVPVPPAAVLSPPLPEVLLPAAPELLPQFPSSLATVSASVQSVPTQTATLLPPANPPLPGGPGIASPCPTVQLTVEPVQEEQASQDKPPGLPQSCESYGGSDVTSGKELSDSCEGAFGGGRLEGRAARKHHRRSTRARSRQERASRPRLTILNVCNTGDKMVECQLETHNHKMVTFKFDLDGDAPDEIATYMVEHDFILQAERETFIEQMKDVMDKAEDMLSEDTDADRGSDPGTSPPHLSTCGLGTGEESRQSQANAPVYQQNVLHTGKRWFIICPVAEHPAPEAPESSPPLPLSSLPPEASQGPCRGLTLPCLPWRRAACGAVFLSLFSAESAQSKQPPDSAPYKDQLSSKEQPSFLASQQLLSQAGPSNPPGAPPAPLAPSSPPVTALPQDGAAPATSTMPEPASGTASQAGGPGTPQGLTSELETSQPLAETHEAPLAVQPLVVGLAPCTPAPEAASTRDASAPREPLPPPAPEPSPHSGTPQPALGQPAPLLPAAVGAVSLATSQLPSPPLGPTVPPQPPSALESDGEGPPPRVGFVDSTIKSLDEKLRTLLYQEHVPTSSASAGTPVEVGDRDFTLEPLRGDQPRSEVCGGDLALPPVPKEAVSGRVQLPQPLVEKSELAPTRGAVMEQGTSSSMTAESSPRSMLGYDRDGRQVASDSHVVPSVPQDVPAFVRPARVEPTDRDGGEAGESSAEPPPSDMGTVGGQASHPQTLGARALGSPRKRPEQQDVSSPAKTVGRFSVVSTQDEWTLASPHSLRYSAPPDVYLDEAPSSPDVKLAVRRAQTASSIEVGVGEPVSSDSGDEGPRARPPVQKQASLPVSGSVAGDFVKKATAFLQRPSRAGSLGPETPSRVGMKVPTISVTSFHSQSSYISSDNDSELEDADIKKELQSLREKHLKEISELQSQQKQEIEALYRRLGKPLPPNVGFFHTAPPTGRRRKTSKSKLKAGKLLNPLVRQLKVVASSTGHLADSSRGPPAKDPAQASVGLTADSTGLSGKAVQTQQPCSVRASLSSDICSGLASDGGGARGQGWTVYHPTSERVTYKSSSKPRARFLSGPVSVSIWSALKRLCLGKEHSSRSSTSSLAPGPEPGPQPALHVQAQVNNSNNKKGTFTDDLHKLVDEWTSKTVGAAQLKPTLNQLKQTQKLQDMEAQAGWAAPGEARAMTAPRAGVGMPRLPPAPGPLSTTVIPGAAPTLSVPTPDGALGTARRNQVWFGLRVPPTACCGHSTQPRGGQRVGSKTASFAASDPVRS

[17] = target: Mitogen-activated protein kinase 8 (Homo sapiens) (UniProt P45983); assay: JNK1_alpha1 Kinase panel; settings: Compound concentration 1.0 uM
[18] = target: Alpha-1B adrenergic receptor (Homo sapiens) (UniProt P35368); settings: Compound concentration 10.0 uM
[19] = target: Serine/threonine-protein kinase 33 (Homo sapiens) (UniProt Q9BYT3); assay: STK33 Kinase panel; settings: Compound concentration 1.0 uM
[20] = target: Sigma non-opioid intracellular receptor 1 (Homo sapiens) (UniProt Q99720); settings: Compound concentration 10.0 uM
Sequence of Sigma non-opioid intracellular receptor 1 (Homo sapiens) (Q99720 whole entry): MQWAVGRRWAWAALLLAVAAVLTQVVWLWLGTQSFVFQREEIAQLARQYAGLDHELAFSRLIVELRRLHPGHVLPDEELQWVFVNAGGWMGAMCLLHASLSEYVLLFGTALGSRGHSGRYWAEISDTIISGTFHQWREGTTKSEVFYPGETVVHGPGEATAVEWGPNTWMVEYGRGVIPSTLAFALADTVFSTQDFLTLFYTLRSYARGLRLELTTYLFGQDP

[21] = target: Cyclin-dependent kinase 1/cyclin B (Homo sapiens) (UniProt P06493+P14635+Q8WWL7+O95067); assay: CDK1/cyclinB Kinase panel; type: protein-complex assay; settings: Compound concentration 1.0 uM
[22] = target: Proto-oncogene tyrosine-protein kinase Src (Homo sapiens) (UniProt P12931); assay: Src Kinase panel; settings: Compound concentration 1.0 uM
[23] = target: G protein-coupled receptor kinase 5 (Homo sapiens) (UniProt P34947); assay: GRK5 Kinase panel; settings: Compound concentration 1.0 uM
Sequence of G protein-coupled receptor kinase 5 (Homo sapiens) (P34947 whole entry, looked up): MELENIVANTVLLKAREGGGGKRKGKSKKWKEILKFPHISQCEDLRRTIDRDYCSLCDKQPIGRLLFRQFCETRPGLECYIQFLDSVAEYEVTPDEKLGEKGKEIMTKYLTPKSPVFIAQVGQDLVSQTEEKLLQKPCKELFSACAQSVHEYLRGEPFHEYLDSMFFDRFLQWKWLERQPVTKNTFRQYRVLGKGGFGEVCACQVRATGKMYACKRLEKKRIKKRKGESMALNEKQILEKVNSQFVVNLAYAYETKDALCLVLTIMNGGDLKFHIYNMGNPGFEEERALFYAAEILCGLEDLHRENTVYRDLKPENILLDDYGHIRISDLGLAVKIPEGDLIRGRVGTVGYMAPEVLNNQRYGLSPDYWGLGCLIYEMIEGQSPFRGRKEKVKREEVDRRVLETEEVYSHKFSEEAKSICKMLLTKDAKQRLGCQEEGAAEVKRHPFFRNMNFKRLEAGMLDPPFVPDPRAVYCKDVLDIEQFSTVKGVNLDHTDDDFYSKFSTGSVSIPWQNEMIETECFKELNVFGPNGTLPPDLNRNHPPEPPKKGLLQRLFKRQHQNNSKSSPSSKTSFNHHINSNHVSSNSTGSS

[24] = target: Macrophage-stimulating protein receptor (Homo sapiens) (UniProt Q04912); assay: Ron Kinase panel; settings: Compound concentration 1.0 uM
[25] = target: Inhibitor of nuclear factor kappa-B kinase subunit beta (Homo sapiens) (UniProt O14920); assay: IKK_beta Kinase panel; settings: Compound concentration 1.0 uM
[26] = target: Dual specificity tyrosine-phosphorylation-regulated kinase 3 (Homo sapiens) (UniProt O43781); assay: DYRK3 Kinase panel; settings: Compound concentration 1.0 uM
[27] = target: Myotonin-protein kinase (Homo sapiens) (UniProt Q09013); assay: DMPK Kinase panel; settings: Compound concentration 1.0 uM
[28] = target: G protein-coupled receptor kinase 6 (Homo sapiens) (UniProt P43250); assay: GRK6 Kinase panel; settings: Compound concentration 1.0 uM
[29] = target: Receptor-type tyrosine-protein kinase FLT3 (Homo sapiens) (UniProt P36888); assay: Flt3 Kinase panel; settings: Compound concentration 1.0 uM
[30] = target: Calcium/calmodulin-dependent protein kinase kinase 1 (Homo sapiens) (UniProt Q8N5S9); assay: CAMKK1 Kinase panel; settings: Compound concentration 1.0 uM
[31] = target: MAP/microtubule affinity-regulating kinase 3 (Homo sapiens) (UniProt P27448); assay: MARK3 Kinase panel; settings: Compound concentration 1.0 uM
[32] = target: Mitogen-activated protein kinase kinase kinase 20 (Homo sapiens) (UniProt Q9NYL2); assay: ZAK Kinase panel; settings: Compound concentration 1.0 uM
[33] = target: Glycogen synthase kinase-3 alpha (Homo sapiens) (UniProt P49840); assay: GSK3_alpha Kinase panel; settings: Compound concentration 1.0 uM
[34] = target: MAP kinase-interacting serine/threonine-protein kinase 1 (Homo sapiens) (UniProt Q9BUB5); assay: MKNK1 Kinase panel; settings: Compound concentration 1.0 uM
[35] = target: Casein kinase II subunit alpha (Homo sapiens) (UniProt P68400); assay: CK2_alpha1 Kinase panel; settings: Compound concentration 1.0 uM
[36] = target: Testis-specific serine/threonine-protein kinase 1 (Homo sapiens) (UniProt Q9BXA7); assay: TSSK1 Kinase panel; settings: Compound concentration 1.0 uM
Sequence of Testis-specific serine/threonine-protein kinase 1 (Homo sapiens) (Q9BXA7 whole entry): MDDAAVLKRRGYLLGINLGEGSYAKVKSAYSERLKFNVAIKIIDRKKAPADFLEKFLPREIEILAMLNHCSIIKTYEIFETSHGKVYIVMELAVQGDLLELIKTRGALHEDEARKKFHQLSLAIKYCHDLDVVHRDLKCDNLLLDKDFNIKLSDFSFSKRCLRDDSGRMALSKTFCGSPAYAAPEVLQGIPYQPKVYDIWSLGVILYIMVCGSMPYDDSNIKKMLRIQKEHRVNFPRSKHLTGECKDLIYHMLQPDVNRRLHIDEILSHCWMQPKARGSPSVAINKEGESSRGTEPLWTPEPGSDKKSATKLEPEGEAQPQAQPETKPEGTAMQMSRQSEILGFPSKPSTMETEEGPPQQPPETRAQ

[37] = target: Activin receptor type-1B (Homo sapiens) (UniProt P36896); assay: ACVR1B Kinase panel; settings: Compound concentration 1.0 uM
[38] = target: Tyrosine-protein kinase ZAP-70 (Homo sapiens) (UniProt P43403); assay: ZAP-70 Kinase panel; settings: Compound concentration 1.0 uM
[39] = target: Fibroblast growth factor receptor 4 (Homo sapiens) (UniProt P22455); assay: FGFR4 Kinase panel; settings: Compound concentration 1.0 uM
[40] = target: Casein kinase I isoform epsilon (Homo sapiens) (UniProt P49674); assay: CK1_epsilon1 Kinase panel; settings: Compound concentration 1.0 uM
[41] = target: Tyrosine-protein kinase Srms (Homo sapiens) (UniProt Q9H3Y6); assay: Srm Kinase panel; settings: Compound concentration 1.0 uM
[42] = target: Cytoplasmic tyrosine-protein kinase BMX (Homo sapiens) (UniProt P51813); assay: Bmx Kinase panel; settings: Compound concentration 1.0 uM
[43] = target: Tyrosine-protein kinase receptor TYRO3 (Homo sapiens) (UniProt Q06418); assay: Rse Kinase panel; settings: Compound concentration 1.0 uM
[44] = target: Aurora kinase B (Homo sapiens) (UniProt Q96GD4); assay: Aurora_B Kinase panel; settings: Compound concentration 1.0 uM

CC(C)(O)[C@H](F)CN1Cc2cc(NC(=O)c3cnn4cccnc34)c(N3CCOCC3)cc2C1=O
inhibition [1]: 1% | inhibition [2]: -0% | inhibition [3]: 41.3% | inhibition [4]: 2% | inhibition [5]: 23.5% | inhibition [6]: 101% | inhibition [7]: 1.5% | inhibition [8]: 13.3% | inhibition [9]: -3.5% | inhibition [10]: 4% | inhibition [11]: 2% | inhibition [12]: 1.26% | IC50 [13]: 282 nM | inhibition ([13]; Compound concentration 1.0 uM): 83.5% | inhibition [14]: 1% | inhibition [15]: 11.5% | inhibition [16]: 2.5% | inhibition [17]: -1.5% | inhibition [18]: -5.24% | inhibition [19]: 3.5% | inhibition [20]: 9.11% | inhibition [21]: 2.5% | inhibition [22]: 23.8% | inhibition [23]: -2% | inhibition [24]: 2.5% | inhibition [25]: 1.5% | inhibition [26]: 2% | inhibition [27]: 2.1% | inhibition [28]: 3.5% | inhibition [29]: 90.8% | inhibition [30]: 3.5% | inhibition [31]: 8.5% | inhibition [32]: 5.5% | inhibition [33]: 15.5% | inhibition [34]: -6% | inhibition [35]: 3.5% | inhibition [36]: 5% | inhibition [37]: -1% | inhibition [38]: -6.5% | inhibition [39]: -2% | inhibition [40]: 5.5% | inhibition [41]: 16% | inhibition [42]: 33.3% | inhibition [43]: 18% | inhibition [44]: 21.3%
